Assays:
Mus musculus = assay: Compound was tested for the inhibition of tetrabenazine-induced sedation in mice, after peroral administration; type: functional; conditions: po
Rattus norvegicus [1] = organism: Rattus norvegicus; assay: In vitro inhibition of dopamine (DA) uptake in synaptosomal preparation of rat brain; type: functional, organism-based
Rattus norvegicus [2] = organism: Rattus norvegicus; assay: In vitro inhibition of serotonin uptake in synaptosomal preparation of rat brain; type: functional, organism-based
Rattus norvegicus [3] = assay: Compound was tested for the inhibition of tetrabenazine-induced sedation in rat, after peroral administration; failed to produce a 50%antagonism; type: functional; conditions: po
Rattus norvegicus [4] = organism: Rattus norvegicus; assay: In vitro inhibition of norepinephrine (NE) uptake in synaptosomal preparation of rat brain; type: functional, organism-based
Rattus norvegicus [5] = assay: Compound was tested for the inhibition of tetrabenazine-induced sedation in rat, after peroral administration; type: functional; conditions: po

With `CC(NC(C)(C)C)C(=O)c1cccc(Cl)c1` (stereo not given) [BUPROPION] the ED50 (Mus musculus) was 32 mg/kg, the IC50 (Rattus norvegicus [1]) was 900 nM and the IC50 (Rattus norvegicus [2]) was over 10000 nM. It also gave an ED50 (Rattus norvegicus [3]) of over 100 mg/kg and an IC50 (Rattus norvegicus [4]) of 2400 nM.
For `CN(C)CCCN1c2ccccc2CCc2ccccc21` [IMIPRAMINE], the ED50 (Mus musculus) was 9 mg/kg, the IC50 (Rattus norvegicus [1]) was over 10000 nM and the IC50 (Rattus norvegicus [2]) was 500 nM. For the same compound, the IC50 (Rattus norvegicus [4]) was 40 nM and the ED50 (Rattus norvegicus [5]) was 13.4 mg/kg.
For `C[C@@H]1CO[C@@](O)(c2cc(F)cc(F)c2)[C@H](C)N1` [MANIFAXINE], the ED50 (Mus musculus) was 6.2 mg/kg, the IC50 (Rattus norvegicus [1]) was 1000 nM and the IC50 (Rattus norvegicus [2]) was over 10000 nM. For the same compound, the IC50 (Rattus norvegicus [4]) was 70 nM and the ED50 (Rattus norvegicus [5]) was 1.4 mg/kg.
